Measurements taken from patent publication US20050033021A1, “Chimeric Gatiphal 15 variants and their use in the analysis and discovery of modulators of G-protein coupled receptors” (priority 2003, published 2005).

Biological target: T1, rat T1 R1/T1 R3 umami taste receptor (Rattus norvegicus, UniProt Q923K1+Q9Z0R8)
T1 construct: expressed in transfected cells; host or cells: HEK-293, transient transfection, pEAK10 expression vector
T1 sequence (Q9Z0R8 20-840): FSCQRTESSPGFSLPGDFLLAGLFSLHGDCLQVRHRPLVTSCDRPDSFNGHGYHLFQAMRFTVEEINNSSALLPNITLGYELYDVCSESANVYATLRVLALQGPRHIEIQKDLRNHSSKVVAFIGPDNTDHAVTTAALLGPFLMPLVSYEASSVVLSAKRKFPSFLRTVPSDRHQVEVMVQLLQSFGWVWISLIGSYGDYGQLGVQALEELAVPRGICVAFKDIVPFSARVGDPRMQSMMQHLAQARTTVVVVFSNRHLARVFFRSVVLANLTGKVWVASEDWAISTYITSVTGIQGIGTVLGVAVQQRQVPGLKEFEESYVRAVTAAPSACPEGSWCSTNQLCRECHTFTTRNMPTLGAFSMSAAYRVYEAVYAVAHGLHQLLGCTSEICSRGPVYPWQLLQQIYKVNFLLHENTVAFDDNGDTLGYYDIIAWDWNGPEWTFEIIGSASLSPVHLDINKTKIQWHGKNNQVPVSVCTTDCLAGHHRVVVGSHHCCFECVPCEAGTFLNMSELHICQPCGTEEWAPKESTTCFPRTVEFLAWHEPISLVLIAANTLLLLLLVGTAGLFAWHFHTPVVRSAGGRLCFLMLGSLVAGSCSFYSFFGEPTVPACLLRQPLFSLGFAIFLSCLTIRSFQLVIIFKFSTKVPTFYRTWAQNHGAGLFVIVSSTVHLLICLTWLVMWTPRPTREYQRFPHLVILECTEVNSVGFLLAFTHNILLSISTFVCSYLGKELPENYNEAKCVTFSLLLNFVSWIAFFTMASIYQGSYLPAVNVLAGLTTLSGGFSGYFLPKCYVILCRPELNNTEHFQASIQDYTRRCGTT
T1 sequence (Q923K1 21-858): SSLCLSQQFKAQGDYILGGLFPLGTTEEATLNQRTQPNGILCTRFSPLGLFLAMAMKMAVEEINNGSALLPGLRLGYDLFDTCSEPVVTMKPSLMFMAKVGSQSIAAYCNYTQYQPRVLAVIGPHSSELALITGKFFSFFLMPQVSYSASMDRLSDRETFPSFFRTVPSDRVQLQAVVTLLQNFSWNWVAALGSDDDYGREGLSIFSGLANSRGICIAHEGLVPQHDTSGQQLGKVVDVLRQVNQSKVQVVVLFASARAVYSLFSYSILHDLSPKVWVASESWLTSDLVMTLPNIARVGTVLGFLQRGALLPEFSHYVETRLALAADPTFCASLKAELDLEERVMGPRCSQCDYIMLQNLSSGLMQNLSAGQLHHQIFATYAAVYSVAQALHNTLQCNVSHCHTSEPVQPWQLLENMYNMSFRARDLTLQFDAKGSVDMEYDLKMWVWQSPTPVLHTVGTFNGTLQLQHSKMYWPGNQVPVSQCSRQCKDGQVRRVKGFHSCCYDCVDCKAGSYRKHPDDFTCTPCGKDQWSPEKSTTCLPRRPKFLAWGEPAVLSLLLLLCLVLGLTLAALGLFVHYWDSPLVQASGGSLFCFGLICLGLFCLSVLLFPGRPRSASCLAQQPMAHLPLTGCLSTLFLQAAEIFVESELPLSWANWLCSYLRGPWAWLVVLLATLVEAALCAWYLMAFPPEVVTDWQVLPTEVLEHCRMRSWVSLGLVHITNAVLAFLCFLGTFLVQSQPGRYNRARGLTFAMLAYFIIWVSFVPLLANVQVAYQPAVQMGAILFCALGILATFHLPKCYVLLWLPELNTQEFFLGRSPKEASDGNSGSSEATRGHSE
Assay: Calcium imaging of HEK-293 cells transiently transfected with rat T1R1, T1R3 and Ga15 or Ga15/i1
Format: cell-based
Conditions: HEK-293 with rat T1R1, T1R3 and Ga15/i1; in the presence of 2.5 mM IMP
Source text: Rat T1 R2 and T1 R3 expression constructs were generated using the pEAK10 expression vector (Edge Biosystems). (Rat T1 R1, T1 R2, and T1 R3 nucleic acid sequences are described in U.S. Provisional Application No. 60/339,472, incorporated by reference in its entirety herein). […] Calcium mobilization was monitored on an Axiovert S100 microscope equipped with an inverted 10X/0.5 LWID piano fluor objective (Zeiss) and a cooled CCID camera (Princeton Instruments). Fluorescence images were acquired at 480 nrn excitation and 535 nm emission, and analyzed with Imaging Workbench 4.0 software (Axon Instruments). T1 R receptor activity was quantitated by counting the number of responding cells 30 seconds after stimulus addition. […]

SMILES	cell response (intracellular calcium) to umami taste stimuli
N[C@@H](CC(=O)O)C(=O)O [L-aspartate]	responded
N[C@@H](CCC(=O)O)C(=O)O [L-glutamate]	responded
